# According to the METLIN SMRT retention time set (Domingo-Almenara et al. 2019):
# Experiment: gradient 5% acetonitrile 3 min, to 50% in 2 min, to 85% in 15 min, held 3 min, 100 µL/min
# Conditions: column: Zorbax Extend-C18 2.1 x 50 mm; eluents: water / acetonitrile, 0.1% formic acid
# In short: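 A Zorbax Extend-C18 column (2.1 × 50 mm, 1.8 μm) run at 100 μL/min with water and acetonitrile, both containing 0.1% formic acid, separated mixtures of ~100 pure standards. The HPLC was coupled to a quadrupole time-of-flight mass spectrometer operated in positive and negative ionization mode, with dead and dwell volumes of 40 μL and 900 μL. Each retention time was taken from a computationally picked adduct peak that was then manually inspected.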
row,SMILES,RP-LC retention time
1,O=C(NCCC1=CCCCC1)C(=O)NCC(O)c1ccc(C(F)(F)F)cc1 (centres undefined),949 s
2,CN(CCNC(=O)c1ncoc1-c1ccco1)Cc1ccccc1,630 s
3,CCC(C)N(CCNC(=O)Cn1c(=O)oc2ccccc21)Cc1cccs1 (centres undefined),652 s
4,CC(C)NC(=O)C1Cc2cc(C(F)(F)F)ccc2N2CCN(c3ccccc3)CC12 (centres undefined),1100 s
5,Cc1sc2ccn(C)c(=O)c2c1C(=O)NC1CCN(Cc2ccccc2)CC1,1030 s
6,C#CC1(N2CCCCC2)CCCCC1,638 s
7,Cc1ccc(F)cc1NS(=O)(=O)c1cc2n(c1)CCCNC2=O,671 s
8,O=C(NCc1ccc(F)cc1)C1CCCN(C(=O)C2Sc3ccccc3NC2=O)C1 (centres undefined),759 s
9,CCOc1cc(=O)n2c(c1C(=O)N1CCOCC1)CCCCC2,601 s
10,Cc1ccc(-c2cnc(N3CCCC(C(=O)NCCC4=CCCCC4)C3)nc2)cc1 (centres undefined),1290 s
11,Cc1ccc(Cl)cc1N1CCN(C(=O)C2CCN(S(=O)(=O)c3cn(C)cn3)CC2)CC1,859 s
12,O=c1cccc2n1CC1CC2CN(Cc2nnc(-c3cccc(Br)c3)o2)C1 (centres undefined),803 s
13,CCCCS(=O)(=O)c1cc2c(cc1NC(=O)c1ccccc1Br)n(C)c(=O)n2C,896 s
14,O=C(c1ccc(Br)o1)N1CCC2(CC1)OCCS2,771 s
15,COC(=O)c1ccc(C(=O)OC)c(NC(=O)N2CCC(CN3CCCCCC3)CC2)c1,678 s
16,O=C(Nc1ccc(C(F)(F)F)cc1)NC1CCN(c2ccccc2)C1=O (centres undefined),912 s
17,O=C(CC1CCCCC1)N1CCN(c2ccc(=O)n(-c3ccccc3)n2)CC1,857 s
18,Cn1ncc2c(N3CCCC3)nc(C(=O)NCc3ccc(C(F)(F)F)cc3)nc21,905 s
19,Cc1cc2c(N3CCCC(C(=O)N4CCN(c5ccc(F)cc5)CC4)C3)nccc2s1 (centres undefined),726 s

row,SMILES,RP-LC retention time
1,COC(=O)C1=CN(c2ccccc2)c2ccccc2S1(=O)=O,777 s
2,CCCNC(=O)c1c2c(nc3ccc(C)cc13)CCC2,625 s
3,CC(=O)N1CCc2cc(N3CC(C(=O)Nc4ccc(N5CCOCC5)cc4)CC3=O)ccc21 (centres undefined),629 s
4,CCNc1nc(C)cc(N2CCN(S(=O)(=O)c3cc(Cl)ccc3Cl)CC2)n1,776 s
5,O=C(NCc1ccccc1Cl)c1cn2c(n1)CCCC2,613 s
6,O=C(NCc1cccc(Cl)c1)C1CCCN(c2ncnc3c2nc2n3CCCCC2)C1 (centres undefined),804 s
7,COc1cc(=O)oc(/C=C/C=C/C=C/C(C)=C/C2(C)OC(C)C(C)(O)C2O)c1C (centres undefined),846 s
8,COc1ccc(NC(=O)N2CCC(c3nc(C(=O)N4CCCC4)c(C)o3)CC2)cc1,727 s
9,CC(=O)c1sc(NC(=O)c2ccccc2[N+](=O)[O-])nc1C,679 s
10,COCCOCC1CCN(C(=O)CNC(=O)c2ccccc2)CC1,620 s
11,O=C1NCCCCCCN(C(=O)Nc2ccc3c(c2)OCCO3)[C@H]2CCC[C@@H]12,749 s
12,Cn1cc(-c2ccc(F)cc2)cc1C(=O)N1CCCC1,906 s
13,CCc1ccc(CNC(=O)Cc2c(C(=O)O)c(C)cn2CC)cc1,842 s
14,CCOCC(=O)N1CC(F)(F)C[C@H]1c1nc(C2CC2)no1,746 s
15,Cn1cc(-c2cc3n(n2)CCC(=O)N3CC(=O)NCCCN2CCCCC2)c2ccccc21,616 s
16,COC(=O)c1sccc1S(=O)(=O)N1CCN(S(=O)(=O)C2CC2)CC1,717 s
17,Cc1ccc(S(=O)(=O)N2CCCC(c3nnc(CC(C)(C)C)o3)C2)cc1C (centres undefined),1030 s
18,CCOCc1nc2c(N)nc3ccccc3c2n1CC(C)(C)O,662 s

# Second part, the compound after the results:
row,RP-LC retention time,SMILES
1,686 s,Cc1nn(C(C)C(=O)NCCN(C)Cc2ccccc2)c(=O)c2c(C)n(-c3ccccc3)nc12 (centres undefined)
2,979 s,CCCn1c(-c2cccc(C(=O)NCc3c(C)cc(C)cc3C)c2)nc2cccnc21
3,530 s,O=C(Cn1ncccc1=O)Nc1cccc(-c2cn3c(n2)SCC3)c1
4,924 s,CCCCN1C(=O)C(C)(C(=O)Nc2cccc(F)c2)Oc2cccnc21 (centres undefined)
5,684 s,Cc1ccc(-c2ncccc2CNS(=O)(=O)c2ccc(C)cc2)cc1
6,644 s,O=C(NCCCN1CCOCC1)c1cc2occc2c(Nc2ccccc2)n1
7,658 s,Cc1noc(C)c1S(=O)(=O)N1CCC(Cn2c(C)cnc2-c2ccccc2)C1 (centres undefined)
8,1090 s,Cc1ccc(-c2nnc(-c3ccccc3Cl)o2)cc1S(=O)(=O)N1CCCC1
9,891 s,CC(C)c1ccc2oc3nc(N)c(C(=O)O)cc3c(=O)c2c1
10,650 s,Cc1nn(C)c(C)c1C(C)NC(=O)C1CCN(c2cnn(Cc3ccccc3)c(=O)c2)CC1 (centres undefined)
11,1020 s,O=C(c1ccco1)N1CCCC1c1nc(-c2cccc(C(F)(F)F)c2)no1 (centres undefined)
12,712 s,CCOc1ccc(OC(=O)C2CCN(c3nc4ccccc4[nH]3)CC2)cc1
13,971 s,O=C(C1CCN(S(=O)(=O)c2ccc(-c3noc(Cc4ccc(F)cc4)n3)cc2)CC1)N1CCCC1
14,675 s,COc1ccc(NC(=O)C2CC(=O)N(c3ccc4c(c3)CCN4C(C)=O)C2)c(OC)c1 (centres undefined)
15,819 s,Cc1ccc(CN2C(=O)NC3(CCCN(C(=O)c4ccc5c(c4)OCO5)C3)C2=O)cc1 (centres undefined)
16,1020 s,COc1ccc(-c2nnc(-c3cccc(S(=O)(=O)N4CCCCCC4)c3)o2)cc1OC
17,753 s,Cn1cc(CN2CCCC(COc3ccccc3C(=O)N3CCCCC3)C2)c2ccccc21 (centres undefined)
18,762 s,COc1cccc(CC(=O)Nc2ccc3c(c2)Sc2ncccc2C(=O)N3C)c1
19,960 s,Brc1ccc(OCc2nnc3sc(-c4ccccn4)nn23)cc1
20,617 s,CCCNC(=O)C1CCCN(c2ccc(SCC(=O)Nc3ccccc3Cl)nn2)C1 (centres undefined)
21,1100 s,Cc1nc2cc(-c3noc(COc4ccccc4C)n3)ccc2o1
22,630 s,COc1cccc(CNC(=O)Cn2nc3c4cccc(C)c4ncn3c2=O)c1OC
23,720 s,Cn1cccc1C(=O)N1CCC(c2noc(-c3ccncc3)n2)C1 (centres undefined)
24,990 s,O=c1n(Cc2ccc(F)cc2Cl)nc2ccc(S(=O)(=O)N3CCCCC3)cn12
25,872 s,Cc1ccc(NC(=O)N2CCC(n3cnc4c(C)cccc4c3=O)CC2)cc1C
26,655 s,CCCNC(=O)C1CCCN(c2ccc(SCC(=O)Nc3c(C)cccc3Cl)nn2)C1 (centres undefined)

row,RP-LC retention time,SMILES
1,824 s,O=C(C1=NN(Cc2ccccc2)c2ccc(Cl)cc2S1(=O)=O)N1CCOCC1
2,564 s,O=C(COc1cccc2ccc(N3CCOCC3)nc12)NCC1CCCO1 (centres undefined)
3,835 s,CCCNS(=O)(=O)c1ccc(-c2c(C)noc2C)cc1
4,787 s,COCCN1C(=O)CCC2(C(=O)NCc3ccc(Cl)cc3)CCCC=C12 (centres undefined)
5,841 s,COc1ccc(CNC(=O)C2(c3ccc(NC(C)=O)cc3)CCCCC2)c(OC)c1
6,621 s,O=C(c1cccc(Cl)c1)N1CCN(c2cc(-c3cccnc3)[nH]n2)CC1
7,930 s,COc1cccc(N2CCN(Cc3nc(-c4ccc(N5CCCCC5)nc4)no3)CC2)c1
8,604 s,CCCc1cc(N2CCN(C(=O)c3cccc(C#N)c3)CC2)nc2nncn12
9,1080 s,CCCN1C(=O)COc2ccc(-c3noc(Cc4cccc(OC)c4)n3)cc21
10,1120 s,Cc1cccc(-n2c(=O)c3sccc3n(Cc3nc(-c4ccc(OC(C)C)cc4)no3)c2=O)c1
11,1010 s,COc1cccc(-c2noc(CCn3nc(-c4ccc(Cl)cc4)ccc3=O)n2)c1OC
12,727 s,CCc1csc(-c2cn(CC(=O)Nc3ccc(OC)c(Cl)c3)cn2)n1
13,746 s,O=C(CCN1C(=O)c2cccnc2Sc2ccccc21)NCCc1c[nH]c2ccccc12
14,836 s,CCc1noc(NC(C)=O)c1-c1ccc(OC)c(S(=O)(=O)Nc2ccc(C)c(F)c2)c1
15,810 s,O=C(C1CCN(c2cnc3nccnc3c2)CC1)N1CCN(c2ccc(Cl)cc2)CC1
16,899 s,COCCOC(=O)C1=C(C)NC2=C(C(=O)C(C(=O)OC)C(C)C2)C1c1cccc(Cl)c1 (centres undefined)
17,713 s,Cc1ccn2cc(C(=O)NCc3ccc(OC(C)C)cc3)nc2c1
18,648 s,O=C(c1cccc(-n2cnnn2)c1)N1CC(c2nc(-c3ccccn3)no2)C1
19,712 s,CSc1cccc(NC(=O)Nc2cccc(-c3ccc(N4CCCC4)nn3)c2)c1
20,877 s,COCCN1C(=O)c2ccccc2C(C(=O)NCc2ccc(F)cc2)C12CCCCC2 (centres undefined)
21,834 s,Cc1nn2c(CNS(=O)(=O)c3ccccc3F)c(-c3ccccc3)nc2s1
22,746 s,CC1CCCCN1CCNS(=O)(=O)c1ccccc1-c1nc(-c2cccc(F)c2)no1 (centres undefined)
23,828 s,Cc1nn(CC(=O)NC2CC2)c(=O)c2c(-n3cccc3)n(-c3cccc(F)c3)nc12
24,983 s,COc1ccc(-c2cc3n(n2)CCCN(S(=O)(=O)CCc2ccccc2)C3)cc1
25,779 s,Cc1noc2nc(C)n(CC(=O)Nc3ccccc3C(F)(F)F)c(=O)c12
26,1310 s,Cc1cc(C)c2nc(-c3ccc4ccccc4c3)cc(C(=O)O)c2c1
